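How tested: cells in 96-well plates exposed to compound for 48 hours at five concentrations. Here, GI50 denotes the concentration required for 50% inhibition of growth. TGI: total growth inhibition.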 Bounds are passed on as bounds.

Experiment in all cases: growth of human tumour cells (NCI), 48 h
Assay [1] concerns NCI-H460 lung.
The subject of assay [2] is KM12 colon.
In assay [3] the test system is EKVX NSCLC.
For assay [4], the system named is OVCAR-8 ovarian.
Assay [5] deals with UO-31 renal.
The subject of assay [6] is SNB-19 CNS.
In assay [7] the test system is SK-MEL-2 melanoma.
Assay [8] has as its system HCC-2998 colon.
Assay [9] relates to UACC-257 melanoma.

Regarding `O=C1c2ccccc2C2(O)NC(=S)N(c3ccccc3)C12O` (stereo not drawn), the TGI in [1], in assay [2], in [3], in assay [4], in [5] and in assay [6] was > 100 µM each time. The TGI in [7], in assay [8] and in [9] was > 100 µM throughout.
`Cc1ccc(NC(=O)CC(=O)n2nc(-c3ccccc3)c(N=Nc3ccccc3Cl)c2-c2ccccc2)cc1`: the TGI in assay [1], in assay [2], in [3], in [4], in [5] and in [6] was > 100 µM each time. Further, the TGI in assay [7], in assay [8] and in assay [9] was > 100 µM each time. Besides, the GI50 in assay [2], in assay [5], in [7], in assay [8] and in assay [9] was > 100 µM throughout.
For the compound `CCn1c(O)c(C=N)c(=O)n(CC)c1=O`, the TGI in [1], in [2], in assay [3], in assay [4], in assay [5] and in [6] was > 100 µM in each case. The TGI in [7], in [8] and in assay [9] was > 100 µM in each case.
As for `CCc1nc(N)nc(C(=O)NCCNC(=O)c2nc(N)nc(CC)c2C)c1C`, the TGI in [1], in assay [2], in assay [3], in assay [4], in assay [5] and in assay [6] was > 100 µM throughout. Besides, the TGI in [7], in assay [8] and in assay [9] was > 100 µM each time.
`C=CCN(CC=C)C(=O)c1cc(C)nc2c1c(=O)n(-c1ccccc1)c(=O)n2CC(O)CN1CCN(c2ncccn2)CC1` (stereo not drawn): the GI50 in assay [1] was 26.7 µM; in assay [2], > 100 µM; in assay [3], > 100 µM; in assay [5] it was > 100 µM; in assay [6], > 100 µM; in [7], > 100 µM. The GI50 in assay [8] is > 100 µM. Further, the TGI in assay [1], in [2], in assay [3], in [5], in [6] and in assay [7] was > 100 µM in each case. The TGI in assay [8] was > 100 µM.
`C1CCN(C2OC3C(COC3N3CCCCC3)OC2OC2CCO[C@@H]2N2CCCCC2)CC1` (stereo partly drawn): the TGI in [1] is > 100 µM; in assay [2] it was > 100 µM; in [3] it was > 100 µM; in assay [4], 59.2 µM; in assay [5], > 100 µM; in assay [6], > 100 µM. Besides, the TGI is > 100 µM in assay [7], > 100 µM in assay [8] and 88.1 µM in assay [9].
In the case of `CC(=O)Nc1c(C)ccc2c1C(=O)c1ccccc1C2=O`, the TGI in assay [1], in assay [2], in [4], in assay [5], in assay [7] and in assay [8] was > 100 µM in each case. Further, the TGI in assay [9] is > 100 µM.
`Cc1nc2cc(N)c(F)cc2[nH]1`: the TGI in assay [1], in [2], in assay [3], in assay [4], in [5] and in assay [6] was > 100 µM in each case. The TGI in assay [7] and in assay [9] was > 100 µM in each case.
For the compound `Cc1cc(N2CCCC2)nc(NC2CCCC(Nc3ccnc4cc(Cl)ccc34)C2)n1` (stereo not drawn), the GI50 is 1.5 µM in assay [2]; 1.86 µM in [3]; 1.92 µM in [4]; 1.05 µM in assay [5]; 1.46 µM in assay [6]; 1.7 µM in [7]. Besides, the GI50 in assay [8] was 1.12 µM; in assay [9], 1.99 µM. Further, the TGI in assay [2] is 3.89 µM; in assay [3], 5.02 µM; in assay [4], 4.39 µM; in assay [5], 2.29 µM; in [6] it was 3.44 µM; in [7], 3.27 µM. For the same compound, the TGI in [8] came out at 2.68 µM; in [9] it was 3.76 µM.
Take `COC1OC(C)C(O)CC1OS(=O)(=O)c1ccc(C)cc1` (stereo not drawn): the TGI in assay [1], in assay [2], in assay [3], in assay [4], in assay [5] and in [6] was > 100 µM throughout. In addition, the TGI in assay [7] and in assay [9] was > 100 µM in each case.
On to `O=C1NC2CCC(C2)C1c1ccccc1` (stereo not drawn), for which the TGI in assay [1], in assay [2], in assay [3], in [4], in assay [5] and in [6] was > 100 µM in each case. In addition, in [8], the TGI is > 100 µM.
Regarding `CC(=O)N/C(=C\c1cccc([N+](=O)[O-])c1)c1nc2c3c(ccc2[nH]1)C(=O)c1ccccc1C3=O`, the TGI was > 100 µM in assay [1]; > 100 µM in assay [2]; > 100 µM in assay [3]; > 100 µM in [4]; > 69.3 µM in [5]; > 100 µM in [6]. Also, the TGI in assay [7] and in [8] was > 100 µM in each case.
For `COC(=O)C(=O)C(C#N)c1ccc(CC#N)cc1` (stereo not drawn), the TGI in assay [2], in assay [3], in assay [5], in assay [6], in assay [7] and in [9] was > 100 µM throughout.
On to `Cc1cc(C)nc(NS(=O)(=O)c2ccc(Nc3c4ccc(Cl)cc4nc4c(C(=O)Nc5ccc(S(=O)(=O)N=C(N)N)cc5)cccc34)cc2)n1`, for which the TGI in assay [1], in [2], in assay [3], in assay [4], in assay [5] and in assay [6] was > 100 µM each time. Further, the TGI in assay [8] and in [9] was > 100 µM in each case.
Consider `COc1ccc2cc3[n+](cc2c1OC)CCc1cc(O)c(O)cc1-3`, for which the TGI in assay [1], in assay [2], in assay [3], in assay [4], in assay [5] and in assay [6] was > 100 µM throughout. Besides, in assay [9], the TGI was > 100 µM.
On to `CC[O-].CC[O-].O=C1C(c2ccccc2)=C([O-])c2ccccc21.O=C1C(c2ccccc2)=C([O-])c2ccccc21.[Ti+4]`, for which the GI50 was > 100 µM in assay [1]; 62.9 µM in assay [2]; 60.1 µM in [3]; > 100 µM in assay [4]; > 100 µM in assay [7]; > 100 µM in assay [8]. Moreover, the GI50 in assay [9] was > 100 µM. Further, the TGI in assay [1], in assay [2], in assay [3], in [4], in assay [7] and in [8] was > 100 µM throughout. Besides, the TGI in [9] is > 100 µM.
As to `COC(=O)C12CC3CC(C1)CC(C(=O)OC)(C3)C2`, the TGI in [1], in [2], in assay [3], in assay [4], in [5] and in assay [6] was > 100 µM in each case. Further, the TGI in assay [8] and in assay [9] was > 100 µM each time.
Turning to `Nc1nc(=S)[nH]c(C(=O)Nc2ccc(Cl)c(Cl)c2)c1-c1ccc(Cl)cc1`, the TGI in assay [1], in assay [2], in assay [3], in assay [4], in assay [5] and in assay [6] was > 100 µM in each case. In addition, the TGI in [8] and in assay [9] was > 100 µM each time.
In the case of `Cc1ccc(/C=C/C(=O)c2sc(-c3cccnc3)nc2C)cc1`, the TGI in assay [1], in assay [2], in assay [3], in [4], in assay [5] and in assay [7] was > 100 µM throughout. The TGI in assay [8] and in assay [9] was > 100 µM in each case.
Take `CN(C)CC/C(=N\Nc1ccccc1)c1ccccc1`: the TGI in assay [2] is 18.3 µM; in assay [3], 41.2 µM; in assay [5], 22.8 µM; in assay [6], > 100 µM; in assay [7] it was 27.2 µM; in assay [8], 58.9 µM.

The record behind these values is PubChem BioAssay (NCI).
